Measured values as given in BindingDB's records for doi:10.1016/s0960-894x(03)00407-4 (Guilford Pharmaceuticals, 2003).

Test: Concentration required for the neuroprotective effect determined by inhibition of GCP II

| EC50 | SMILES |
| --- | --- |
| 9.5 nM | O=C(O)CCC(CP(=O)(O)Cc1c(F)c(F)c(F)c(F)c1F)C(=O)O (racemic) |
| 1100 nM | O=C(O)CCC(CCCC(=O)NO)C(=O)O (stereo not drawn) [2-(3-Hydroxycarbamoyl-propyl)-pentanedioic acid] |
| 220 nM | O=C(O)CCC(CC(=O)NO)C(=O)O (stereo not drawn) [2-[(hydroxycarbamoyl)methyl]pentanedioic acid] |
